Reference: patent US8722332B2, “Macrocyclic lactone resistance marker for dirofilaria immitis” (priority 2010, dated 2014)
Entries after “also recorded” stand apart in the source; their conditions may differ. Like-named read-outs stand apart in the source and are kept apart here. Marks after values point to notes of the source that are not given here.

Legend:
[1] = tested on: mf; settings: in vivo; cited from earlier work
[2] = tested on: D. immitis mf; parameters: species or system Dirofilaria immitis; settings: in vivo
[3] = tested on: adult heartworms; settings: dog, in vivo
[4] = tested on: adult heartworms (D. immitis antigen); parameters: species or system Dirofilaria immitis; settings: in vivo; dihydrochloride

Molecule | dose previously shown to kill mf [1] [µg/kg] | Microfilariae in blood (Knott's test) [2] | clinical signs after adulticide [3] | Antigen test DiroChek result (+ve or −ve) [4] | Antigen test PetChek result (+ve or −ve) [4] | Antigen test SNAP result (+ve or −ve) [4] | Microfilariae concentration in blood ([2]; po) | Microfilariae in blood (Knott's test) ([2]; po)
milbemycin oxime [MO] | 500 | remained continually microfilaremic; also recorded: mf were still present; also recorded: Knott's test +ve^a; also recorded: Knott's test +ve^c |  |  |  |  |  | 
Cl.Cl.NCCS[As](SCCN)c1ccc(Nc2nc(N)nc(N)n2)cc1 [melarsomine, melarsomine dihydrochloride] |  |  | transitory signs consistent with death of adult heartworms | still negative; also recorded: DiroChek −ve^c | negative; also recorded: PetChek −ve^a | still negative; also recorded: SNAP −ve^a |  | 
CC[C@H](C)[C@H]1O[C@]2(CC[C@@H]1C)C[C@@H]1C[C@@H](C/C=C(\C)[C@@H](O[C@H]3C[C@H](OC)[C@@H](O[C@H]4C[C@H](OC)[C@@H](O)[C@H](C)O4)[C@H](C)O3)[C@@H](C)/C=C/C=C3\CO[C@@H]4[C@H](O)C(C)=C[C@@H](C(=O)O1)[C@]34O)O2 [IVM, ivermectin] | 50 |  |  |  |  |  | ≧100^b mf/ml | remained continually microfilaremic; also recorded: still microfilaremic; also recorded: Knott's test +ve^a
